Laboratory results taken from article PMC8009421, “Characterization of a broadly specific cadaverine N-hydroxylase involved in desferrioxamine B biosynthesis in Streptomyces sviceus” (PLoS ONE, 2021).

Key:
[1] = target: T1, SsDesB (without N-terminal hexahistidine tag) (Streptomyces sviceus, UniProt B5HNG5); test: X-ray crystal structure, […] Å; conditions: holoenzyme; FAD-binding site; also in 6XBB
T1 construct: gene SSEG_08523; T2-V425, N-terminal His6 cut off with TEV protease (ENLYFQ/T); codon-optimized gene, E. coli Rosetta2(DE3); homotetramer

[2] = target: T1, SsDesB (without N-terminal hexahistidine tag); test: Csaky iodine oxidation product formation assay; format: biochemical; conditions: substrate inhibition constant (Haldane), 50 μM FAD, pH 8.0, 25°C
From the text: (§1) Csaky iodine oxidation product formation assay on SsDesB (without N-terminal hexahistidine tag)

[3] = target: T1, SsDesB (without N-terminal hexahistidine tag); test: X-ray crystal structure, […] Å; conditions: ternary complex with FAD; NADPH-binding site
[4] = target: T2, SsDesB with N-terminal hexahistidine tag (Streptomyces sviceus, UniProt B5HNG5); test: NADH oxidation at […] nm; format: biochemical; conditions: substrate inhibition constant (Haldane); 0.7 mM NADH, 50 μM FAD, 25°C
T2 construct: gene SSEG_08523

[5] = tested on: NC(=O)C1=CN([C@@H]2O[C@H](COP(=O)(O)OP(=O)(O)OC[C@H]3O[C@@H](n4cnc5c(N)ncnc54)[C@H](O)[C@@H]3O)[C@@H](O)[C@H]2O)C=CC1; test: Csaky iodine oxidation product formation assay; format: biochemical, Streptomyces sviceus; conditions: 10 mM cadaverine, 50 μM FAD, pH 8.0, 25°C, Haldane fit
From the text: as §1

[6] = tested on: NC(=O)C1=CN([C@@H]2O[C@H](COP(=O)(O)OP(=O)(O)OC[C@H]3O[C@@H](n4cnc5c(N)ncnc54)[C@H](O)[C@@H]3O)[C@@H](O)[C@H]2O)C=CC1; test: purified protein; format: biochemical, Streptomyces sviceus; conditions: 10 mM cadaverine, 50 μM FAD, 25°C, Haldane fit

Compound: Cc1cc2nc3c(=O)[nH]c(=O)nc-3n(C[C@H](O)[C@H](O)[C@H](O)COP(=O)(O)OP(=O)(O)OC[C@H]3O[C@@H](n4cnc5c(N)ncnc54)[C@H](O)[C@@H]3O)c2cc1C [FAD]
- X-ray crystal structure, 2.86 Å [1]: FAD molecule is bound in an elongated conformation with the fully planar isoalloxazine ring

Compound: NC(=O)C1=CN([C@@H]2O[C@H](COP(=O)(O)OP(=O)(O)OC[C@H]3O[C@@H](n4cnc5c(N)ncnc54)[C@H](O)[C@@H]3O)[C@@H](O)[C@H]2O)C=CC1 [NADH]
- KI ([2]; 10 mM cadaverine): 1.0 ± 0.4 mM

Compound: NC(=O)C1=CN([C@@H]2O[C@H](COP(=O)(O)OP(=O)(O)OC[C@H]3O[C@@H](n4cnc5c(N)ncnc54)[C@H](OP(=O)(O)O)[C@@H]3O)[C@@H](O)[C@H]2O)C=CC1 [NADPH]
- KI ([2]; 10 mM cadaverine): 1.1 ± 0.6 mM

Compound: NC(=O)c1ccc[n+]([C@@H]2O[C@H](COP(=O)(O)OP(=O)(O)OC[C@H]3O[C@@H](n4cnc5c(N)ncnc54)[C@H](OP(=O)(O)O)[C@@H]3O)[C@@H](O)[C@H]2O)c1 [NADP^+]
- X-ray crystal structure, 2.37 Å [3]: the NADP^+ cofactor is held in the active site pocket in an elongated manner

Compound: NCCCCCN [cadaverine]
- KI [4]: 2.2 ± 1.8 mM
- KI ([2]; 0.7 mM NADPH (Fig 3 legend says NADH)): 27 ± 22 mM

Compound: SsDesB (without N-terminal hexahistidine tag) (Streptomyces sviceus ATCC 29083)
- Km [5]: 130 ± 49 µM
- kcat [5]: 0.094 ± 0.018 s⁻¹
- kcat/Km [5]: 710 ± 260 M⁻¹ s⁻¹

Compound: SsDesB with N-terminal hexahistidine tag (Streptomyces sviceus ATCC 29083)
- Km [6]: 120 ± 36 µM
- kcat [6]: 0.38 ± 0.09 s⁻¹
- kcat/Km [6]: 3300 ± 1300 M⁻¹ s⁻¹
